Experimental data as given in US8609661B2, “Pyrimido-pyrrolo-quinoxalinedione inhibitors of cystic fibrosis transmembrane conductance regulator protein and uses therefor” (The Regents of the University of California, priority 2009, dated 2013).
Like-named read-outs stand apart in the source and are kept apart here.

Molecular target: T1, human wildtype CFTR (Homo sapiens, UniProt P13569)
T1 construct: expressed in transfected cells; host or cells: Fischer rat thyroid (FRT) cells
Experiment: Fluorescence platereader assay of CFTR-mediated iodide influx (YFP quenching) in FRT cells
Assay type: cell-based
Conditions: for inhibition at 5 µM / inhibition at 25 µM: FRT; for inhibition at 25 µM: read-out: % Inhibition at 25 μM; for IC50: apparent IC50 from concentration-inhibition data, fluorescence platereader assay
Description: A. Cell lines and compounds—Fischer rat thyroid (FRT) cells co-expressing human wildtype CFTR and the halide indicator YFP-H148Q/1152L were generated as described (see, e.g., Ma et al., J. Clin. Invest. 110:1651-1658 (2002)). Cells were plated in 96-well black-walled microplates (Corning Costar) at a density of 20,000 cells per well in Coon's modified F12 medium supplemented with 5% fetal calf serum, 2 mM L-glutamine, 100 U/mL penicillin, and 100 μg/ml streptomycin. Assays were performed at 48 h after plating the cells when the cells were just confluent. For some experiments, measurements were made using T84 human intestinal epithelial cells and for other experiments, measurements were obtained using primary cultures of human bronchial epithelial cells, which were obtained and grown essentially as previously described (see, e.g., 3 and 27).
B. Compound Screening—Assays were performed using an automated screening platform (Beckman) equipped with FLUOStar fluorescence platereaders (BMG Lab Technologies, Offenburg, Germany) as described (see Ma et al., supra). Each well of a 96-well plate containing FRT cells was washed 3 times in PBS (300 μL/wash), leaving 50 μL PBS. […] After 15 min, 96-well plates were transferred to a plate reader for fluorescence assay. Each well was assayed individually for CFTR-mediated iodide influx by recording fluorescence continuously (200 ms per point) for 2 s (baseline) and then for 10 s after rapid addition of 160 μL of isosmolar PBS in which 137 mM chloride was replaced by iodide. The initial rate of iodide influx was computed from fluorescence data by non-linear regression.
Collections of synthetic and natural compounds were screened according to the screening procedures described in Example 2. A cell-based fluorescence assay was used in which CFTR inhibitors were identified by reduced iodide influx in FRT cells co-expressing human CFTR and a YFP halide sensor. CFTR was maximally activated by a mixture of agonists having different activating mechanisms. Inhibition of iodide influx was observed as reduced YFP fluorescence quenching in response to rapid iodide addition to each well of 96-well plates. […]

[1] = Table 2, screening, 5 μM, read-out: % Inhibition at 5 μM
[2] = read-out: % inhibition at 25/5 μM (5 μM value), Table 1, 5 μM compound

T1 sequence (P13569 whole entry): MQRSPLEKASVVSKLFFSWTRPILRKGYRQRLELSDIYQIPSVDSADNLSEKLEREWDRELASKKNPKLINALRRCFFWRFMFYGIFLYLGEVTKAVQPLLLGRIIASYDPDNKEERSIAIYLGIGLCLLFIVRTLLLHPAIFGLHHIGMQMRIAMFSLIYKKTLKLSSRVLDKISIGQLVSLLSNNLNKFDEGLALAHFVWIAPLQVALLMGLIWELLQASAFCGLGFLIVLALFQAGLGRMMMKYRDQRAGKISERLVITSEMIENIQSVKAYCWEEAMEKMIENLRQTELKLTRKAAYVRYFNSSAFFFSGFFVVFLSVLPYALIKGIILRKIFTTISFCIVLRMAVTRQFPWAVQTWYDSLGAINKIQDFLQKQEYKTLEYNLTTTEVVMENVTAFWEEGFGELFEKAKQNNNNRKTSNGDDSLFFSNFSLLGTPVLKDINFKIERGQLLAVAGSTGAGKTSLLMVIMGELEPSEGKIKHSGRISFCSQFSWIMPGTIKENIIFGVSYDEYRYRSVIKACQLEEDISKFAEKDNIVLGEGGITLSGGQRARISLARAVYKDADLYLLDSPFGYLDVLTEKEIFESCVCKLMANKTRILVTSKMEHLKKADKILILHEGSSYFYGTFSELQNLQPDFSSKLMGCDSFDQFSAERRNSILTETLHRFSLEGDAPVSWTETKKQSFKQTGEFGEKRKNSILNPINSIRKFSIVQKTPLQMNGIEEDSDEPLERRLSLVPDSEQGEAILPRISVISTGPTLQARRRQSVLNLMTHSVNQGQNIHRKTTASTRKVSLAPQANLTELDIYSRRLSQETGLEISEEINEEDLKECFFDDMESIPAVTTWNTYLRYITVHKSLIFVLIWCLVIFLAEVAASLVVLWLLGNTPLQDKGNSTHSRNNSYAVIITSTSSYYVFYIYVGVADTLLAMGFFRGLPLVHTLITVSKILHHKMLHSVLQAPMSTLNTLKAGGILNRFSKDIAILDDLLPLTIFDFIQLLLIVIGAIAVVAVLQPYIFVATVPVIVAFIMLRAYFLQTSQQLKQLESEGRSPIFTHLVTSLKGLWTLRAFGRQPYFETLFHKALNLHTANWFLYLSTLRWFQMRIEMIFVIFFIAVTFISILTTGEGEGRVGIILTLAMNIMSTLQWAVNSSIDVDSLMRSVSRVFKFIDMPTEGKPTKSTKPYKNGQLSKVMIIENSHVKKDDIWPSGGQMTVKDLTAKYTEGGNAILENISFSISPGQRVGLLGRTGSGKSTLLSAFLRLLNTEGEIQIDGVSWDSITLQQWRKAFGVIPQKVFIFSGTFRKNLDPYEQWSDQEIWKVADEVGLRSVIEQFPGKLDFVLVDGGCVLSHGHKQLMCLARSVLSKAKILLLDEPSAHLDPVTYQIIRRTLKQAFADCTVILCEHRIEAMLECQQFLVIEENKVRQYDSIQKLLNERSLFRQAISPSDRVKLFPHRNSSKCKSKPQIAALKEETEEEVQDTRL

| inhibition at 5 µM [1] [%] | inhibition at 25 µM (Table 2, screening) [%] | IC50 [nM] | inhibition at 5 µM [2] [%] | Compound |
| --- | --- | --- | --- | --- |
| < 10 | 45 |  |  | Cc1ccccc1-c1c2c(=O)n(C)c(=O)n(C)c2c2n1-c1ccccc1NC2c1ccc(C#N)cc1 (centres unmarked) |
| 14 | 61 |  |  | Cc1cc2c(cc1C)-n1c(-c3ccccc3)c3c(=O)n(C)c(=O)n(C)c3c1C(c1cccs1)N2 (centres unmarked) [PPQ-115, 2,3,7,9-Tetramethyl-11-phenyl-6-(thienyl-2-yl)-5,6-dihydro-pyrimido[4′,5′-3,4]pyrrolo[1,2-a]quinoxaline-8,10-(7H,9H)-dione] |
| 16 | 74 |  |  | COc1cc(C2Nc3ccccc3-n3c(-c4cccc(C)c4)c4c(=O)n(C)c(=O)n(C)c4c32)ccc1O (centres unmarked) [PPQ-241, 7,9-Dimethyl-11-(3-methylphenyl)-6-(3-methoxy-4-hydroxyphenyl)-5,6-dihydro-pyrimido[4′,5′-3,4]pyrrolo[1,2-a]quinoxaline-8,10-(7H,9H)-dione] |
| 41 | 94 | 5000 |  | Cc1ccccc1-c1c2c(=O)n(C)c(=O)n(C)c2c2n1-c1ccccc1NC2c1ccccc1 (centres unmarked) [PPQ-218, 7,9-Dimethyl-11-(2-methylphenyl)-6-phenyl-5,6-dihydro-pyrimido[4′,5′-3,4]pyrrolo[1,2-a]quinoxaline-8,10-(7H,9H)-dione] |
| 22 | 57 |  |  | Cc1cccc(-c2c3c(=O)n(C)c(=O)n(C)c3c3n2-c2ccccc2NC3c2ccc(F)cc2)c1 (centres unmarked) [PPQ-238, 7,9-Dimethyl-11-(3-methylphenyl)-6-(4-fluorophenyl)-5,6-dihydro-pyrimido[4′,5′-3,4]pyrrolo[1,2-a]quinoxaline-8,10-(7H,9H)-dione] |
| 61 | 94 |  |  | Cc1cccc(-c2c3c(=O)n(C)c(=O)n(C)c3c3n2-c2ccccc2NC3c2cccc([N+](=O)[O-])c2)c1 (centres unmarked) [PPQ-225, 7,9-Dimethyl-11-(3-methylphenyl)-6-(3-nitrophenyl)-5,6-dihydro-pyrimido[4′,5′-3,4]pyrrolo[1,2-a]quinoxaline-8,10-(7H,9H)-dione] |
| 29 | 79 |  |  | Cc1cccc(-c2c3c(=O)n(C)c(=O)n(C)c3c3n2-c2ccccc2NC3c2cccs2)c1 (centres unmarked) [PPQ-114, 7,9-Dimethyl-11-(3-methylphenyl)-6-(thienyl-2-yl)-5,6-dihydro-pyrimido[4′,5′-3,4]pyrrolo[1,2-a]quinoxaline-8,10-(7H,9H)-dione] |
| 47 | 76 |  |  | Cn1c(=O)c2c(-c3ccccc3F)n3c(c2n(C)c1=O)C(c1cccs1)Nc1ccccc1-3 (centres unmarked) [PPQ-116, 7,9-Dimethyl-11-(2-fluorophenyl)-6-(thienyl-2-yl)-5,6-dihydro-pyrimido[4′,5′-3,4]pyrrolo[1,2-a]quinoxaline-8,10-(7H,9H )-dione] |
| < 10 | 30 |  |  | Cc1ccccc1-c1c2c(=O)n(C)c(=O)n(C)c2c2n1-c1ccccc1NC2c1cccc(O)c1O (centres unmarked) |
| < 10 | 38 |  |  | Cn1c(=O)c2c(-c3ccccc3)n3c(c2n(C)c1=O)C(c1cccc(O)c1O)Nc1ccccc1-3 (centres unmarked) |
| 70 | > 95 | 2500 | 70 | Cn1c(=O)c2c(-c3ccccc3F)n3c(c2n(C)c1=O)C(c1cccc(Cl)c1)Nc1ccccc1-3 (centres unmarked) [PPQ-214, 7,9-Dimethyl-11-(2-fluorophenyl)-6-(3-chlorophenyl)-5,6-dihydro-pyrimido[4′,5′-3,4]pyrrolo[1,2-a]quinoxaline-8,10-(7H,9H)-dione] |
| 19 | 67 |  |  | Cc1ccccc1-c1c2c(=O)n(C)c(=O)n(C)c2c2n1-c1ccccc1NC2c1cccs1 (centres unmarked) [PPQ-117, 7,9-Dimethyl-11-(2-methylphenyl)-6-(thienyl-2-yl)-5,6-dihydro-pyrimido[4′,5′-3,4]pyrrolo[1,2-a]quinoxaline-8,10-(7H,9H)-dione] |
| 27 | 31 |  |  | Cc1ccc(-c2c3c(=O)n(C)c(=O)n(C)c3c3n2-c2ccccc2NC3c2cccc(F)c2F)cc1 (centres unmarked) |
| < 10 | 31 |  |  | COc1cccc(C2Nc3ccccc3-n3c(-c4cccc(C)c4)c4c(=O)n(C)c(=O)n(C)c4c32)c1O (centres unmarked) |
| < 10 | 36 |  |  | Cn1c(=O)c2c(-c3ccccc3F)n3c(c2n(C)c1=O)C(c1ccc(O)cc1O)Nc1ccccc1-3 (centres unmarked) |
| 30 | 74 |  |  | Cn1c(=O)c2c(-c3ccccc3)n3c(c2n(C)c1=O)C(c1cccc(O)c1)Nc1ccccc1-3 (centres unmarked) [PPQ-240, 7,9-Dimethyl-11-phenyl-6-(3-hydroxyphenyl)-5,6-dihydro-pyrimido[4′,5′-3,4]pyrrolo[1,2-a]quinoxaline-8,10-(7H,9H)-dione] |
| < 10 | 38 |  |  | Cc1ccc(C2Nc3ccccc3-n3c(-c4ccccc4)c4c(=O)n(C)c(=O)n(C)c4c32)cc1 (centres unmarked) |
| < 10 | 31 |  |  | COc1ccc(C2Nc3ccccc3-n3c(-c4ccc(Cl)cc4)c4c(=O)n(C)c(=O)n(C)c4c32)cc1 (centres unmarked) |
| 80 | > 95 | 1500 | 80 | Cc1cc2c(cc1C)-n1c(-c3ccccc3)c3c(=O)n(C)c(=O)n(C)c3c1C(c1ccc(O)cc1)N2 (centres unmarked) [PPQ-203, 2,3,7,9-Tetramethyl-11-phenyl-6-(4-hydroxyphenyl)-5,6-dihydro-pyrimido[4′,5′-3,4]pyrrolo[1,2-a]quinoxaline-8,10-(7H,9H)-dione] |
| 13 | 41 |  |  | Cc1ccccc1C1Nc2ccccc2-n2c(-c3ccccc3)c3c(=O)n(C)c(=O)n(C)c3c21 (centres unmarked) |
|  |  | 2500 |  | Cn1c(=O)c2c(-c3ccccc3)n3c(c2n(C)c1=O)C(c1ccccc1)Nc1ccccc1-3 (centres unmarked) [PPQ-206, 7,9-Dimethyl-11-phenyl-6-phenyl-5,6-dihydro-pyrimido[4′,5′-3,4]pyrrolo[1,2-a]quinoxaline-8,10-(7H,9H)-dione] |
| 21 | 57 |  |  | Cc1ccc(-c2c3c(=O)n(C)c(=O)n(C)c3c3n2-c2ccccc2NC3c2ccc(C)o2)cc1 (centres unmarked) [PPQ-110, 7,9-Dimethyl-11-(4-methylphenyl)-6-(5-methylfuran-2-yl)-5,6-dihydro-pyrimido[4′,5′-3,4]pyrrolo[1,2-a]quinoxaline-8,10-(7H,9H)-dione] |
| 62 | > 95 | 2000 | 62 | COc1cccc(C2Nc3ccccc3-n3c(-c4ccccc4F)c4c(=O)n(C)c(=O)n(C)c4c32)c1 (centres unmarked) [PPQ-211, 7,9-Dimethyl-11-(2-fluorophenyl)-6-(3-methoxyphenyl)-5,6-dihydro-pyrimido[4′,5′-3,4]pyrrolo[1,2-a]quinoxaline-8,10-(7H,9H)-dione] |
| < 10 | > 95 |  |  | Cc1ccc(-c2c3c(=O)n(C)c(=O)n(C)c3c3n2-c2ccccc2NC3c2ccc(C)cc2O)cc1 (centres unmarked) [PPQ-220, 7,9-Dimethyl-11-(4-methylphenyl)-6-(2-hydroxy-4-methylphenyl)-5,6-dihydro-pyrimido[4′,5′-3,4]pyrrolo[1,2-a]quinoxaline-8,10-(7H,9H)-dione] |
| 5 | 64 |  |  | COc1cc(C2Nc3ccccc3-n3c(-c4ccccc4)c4c(=O)n(C)c(=O)n(C)c4c32)ccc1O (centres unmarked) [PPQ-248, 7,9-Dimethyl-11-phenyl-6-(3-methoxy-4-hydroxyphenyl)-5,6-dihydro-pyrimido[4′,5′-3,4]pyrrolo[1,2-a]quinoxaline-8,10-(7H,9H)-dione] |
